Assays:
Assay type in all cases: binding
[1] = Competition with EDTA in complexing Co2+, proton NMR; conditions: 1 mmol/l derivative, 4 mmol/l cation and EDTA (large excess of EDTA), aqueous solution
Description: (§1) In this example, experiments were carried out to compare the derivative from Example 1 and ethylene diamine tetra acetate (EDTA) in complexing Dy^3+, Eu^3+ and Co^2+ ions, in order to get an idea of the force of the complexes prepared in Example 2.
(§2) With this in mind, 4 mmol/l of the tested cation and EDTA were added to 50 μl of an aqueous solution containing 1 mmol/l of the derivative from Example 1. The resulting products were than characterised by proton NMR spectrometry.

[2] = Complexation of Lu3+ followed by proton NMR; conditions: 1 mmol/l derivative, 4 mmol/l cation, aqueous solution
Description: (§3) Each complex is prepared by adding 4 mmol/l of the tested cation to 500 μl of an aqueous solution containing 1 mmol/l of the product from Example 1. The following cations were tested: Lu^3+, La^3+, Dy^3+, Eu^3+ and Co^2+.
(§4) The resulting complexes were then characterised by proton nuclear magnetic resonance spectrometry.

[3] = Complexation of La3+ followed by proton NMR; conditions: 1 mmol/l derivative, 4 mmol/l cation, aqueous solution
Description: as §3, §4

[4] = Complexation of Co2+ followed by proton NMR; conditions: 1 mmol/l derivative, 4 mmol/l cation, aqueous solution
Description: as §3, §4

[5] = Complexation of Dy3+ followed by proton NMR; conditions: 1 mmol/l derivative, 4 mmol/l cation, aqueous solution
Description: as §3, §4

[6] = Complexation of physiological cation K+, proton NMR; conditions: same procedure as Example 2: 1 mmol/l derivative, 4 mmol/l cation
Description: as §3
(§5) In this example, the complexation properties of the derivative from Example 1 were tested vis à vis physiological cations: calcium, sodium and potassium, all of which are required in the development of living organisms.
(§6) The same procedure was used as given in Example 2, and the resulting products were characterised by proton NMR spectrometry.

[7] = Complexation of physiological cation Na+, proton NMR; conditions: same procedure as Example 2: 1 mmol/l derivative, 4 mmol/l cation
Description: as §3, §5, §6

[8] = Complexation of Eu3+ followed by proton NMR; conditions: 1 mmol/l derivative, 4 mmol/l cation, aqueous solution
Description: as §3, §4

[9] = Complexation of physiological cation Ca2+, proton NMR; conditions: same procedure as Example 2: 1 mmol/l derivative, 4 mmol/l cation
Description: as §3, §5, §6

[10] = Competition with EDTA in complexing Dy3+, proton NMR; conditions: 1 mmol/l derivative, 4 mmol/l cation and EDTA (large excess of EDTA), aqueous solution
Description: as §1, §2

[11] = Competition with EDTA in complexing Eu3+, proton NMR; conditions: 1 mmol/l derivative, 4 mmol/l cation and EDTA (large excess of EDTA), aqueous solution
Description: as §1, §2

**Q.** What does the source list for “Hexakis-(3,6-anhydro-2-O-carboxymethyl)-cyclomaltohexaose [Example 1]”?
**A.** strength of Co^2+ complex compared to EDTA [1]: complexes the cations more strongly than EDTA; interaction with Lu^3+ (change of proton NMR spectrum) [2]: several stoichiometrically different complexes co-exist in solution; interaction with La^3+ (change of proton NMR spectrum) [3]: H6 and H6′ protons located on the anhydro bridge can still be observed; interaction with Co^2+ (change of proton NMR spectrum) [4]: very strong interaction; interaction with Dy^3+ (change of proton NMR spectrum) [5]: very strong interaction; effect of K^+ on proton NMR peaks of the derivative (complexation) [6]: hardly affected; effect of Na^+ on proton NMR peaks of the derivative (complexation) [7]: hardly affected; interaction with Eu^3+ (change of proton NMR spectrum) [8]: very strong interaction; effect of Ca^2+ on proton NMR peaks of the derivative (complexation) [9]: hardly affected; strength of Dy^3+ complex compared to EDTA [10]: complexes the cations more strongly than EDTA; strength of Eu^3+ complex compared to EDTA [11]: complexes the cations more strongly than EDTA

From patent US6559135B2, “Per-(3-6-anhydro)cyclodextrins derivatives, preparation and use thereof for separating ions” (Commissariat a l'Energie Atomique, priority 2000, dated 2003)
